This is an account of results in US7635714B2, “Methods of treating dyschezia” (priority 2002, dated 2009).

In series [1] the test system is rabbits with morphine-induced defecation dysfunction. Nature of the series: Improving effect on morphine-induced defecation dysfunction in rabbits (stool weight). The series is classed as in vivo, rabbit. Particulars: morphine 1 mg/kg s.c. As to the method: Effects on defecation dysfunction can be studied using an animal model with morphine-induced defecation dysfunction. To study the effect of GM-611 on defecation dysfunction, rabbits were subcutaneously administered with morphine (Anpec (trade name), Dainippon Pharmaceutical Co., Ltd.) to induce defecation dysfunction and then the stool weight was measured to evaluate the acceleratory effect of GM-611 on defecation in the model. Rabbits (Kbl:JW) were subcutaneously administered with vehicle (physiological saline) or morphine (1 mg/kg) and fed for 30 minutes (feeding stimulation), followed by oral administration of vehicle (3 w/v % gum arabic suspension) or GM-611 at a dose of 1.25 mg/kg, 2.5 mg/kg, 5 mg/kg, 10 mg/kg or 20 mg/kg. The stool weight for 2.5 hours after administration was measured (11 rabbits in each group) to examine the improving effect of GM-611 on morphine-induced defecation dysfunction.

The conditions of series [2]: compared with erythromycin; cited from earlier work.
Another series has as its system normal rabbits (Kbl:JW). Description: Acceleratory effects on defecation in normal rabbits (stool weight, water content of stools). The series is classed as in vivo, rabbit. The text has this:
To study the difference of effects between GM-611 and a laxative, sennoside (sennoside solution (trade name), Taisho Pharm. Ind., Ltd.) was used as a laxative to compare with acceleratory effects of GM-611 on defecation. More specifically, normal rabbits were orally administered with GM-611 or sennoside and then measured for the weight and water content of stools. Normal rabbits (Kbl:JW), in groups of 13 to 15, were orally administered with vehicle (3 w/v % gum arabic suspension), GM-611 (1.25 mg/kg, 2.5 mg/kg, 5 mg/kg, 10 mg/kg), vehicle (purified water), or sennoside (12 mg/kg, 24 mg/kg, 48 mg/kg). The stool weight was then measured every 4 hours until 8 hours after administration. Also, their stools were collected, dried in a dry oven (at 120° C. for 24 hours or longer) and then the dry stool weight was measured to calculate the water content of stools (%) according to the following formula: ((wet stool weight [g]−dry stool weight [g]))/wet stool weight [g])×100.

The test system of a further series is normal dogs (beagle). Nature of the series: Acceleratory effect on defecation in normal dogs (time until the first defecation). The series is classed as in vivo, dog. As to the method:
In addition to the studies in rabbits, the acceleratory effect of GM-611 on defecation was also studied in normal dogs. Five beagle dogs were each catheterized to insert an intragastric catheter (Chugai Pharmaceutical Co., Ltd., 8.3-9.9 kg, 2 males and 3 females). Each dog was fed with pellets (CD-5 (CLEA Japan, Inc.), about 250 g) at 9:00 a.m. and then monitored for its defecation immediately after feeding. One hour after feeding, the animals […] defecation within 1 hour were intragastrically administered via the catheter with vehicle (3 w/v % gum arabic suspension) or GM-611 (0.3 mg/kg, 1 mg/kg, 3 mg/kg) and then measured for the time until the first defecation after administration.

In another series the test system is healthy male volunteers. Description: Acceleratory effect on defecation in healthy volunteers (Phase I, repeated oral administration). The series is classed as in vivo, human. As to the method: The acceleratory effect of GM-611 on defecation was studied by repeated oral administration of GM-611 in Phase I trials. Healthy male volunteers, in groups of 6, were orally administered for 10 days with placebo or GM-611 (5 mg, 10 mg, 20 mg) on a three-times-a-day basis together with 150 mL water at 30 minutes before each meal, provided that the volunteers were administered once before breakfast on the first and tenth days. The volunteers were then monitored for their defecation during the period of administration. The acceleratory effect on defecation was assessed by the daily frequency of defecation, the number of days that at least one defecation was observed (the number of defecation days), and stool condition (watery diarrhea, muddy diarrhea, muddy soft stool, formed soft stool, normal stool, hard stool, very hard stool). It should be noted that in this test, the subjects were allocated at random to each test group and tested in a double-blind manner.

As for `CN1CC[C@]23c4c5ccc(O)c4O[C@H]2[C@@H](O)C=C[C@H]3[C@H]1C5` [morphine, reference compound], the “defecation enhanced by feeding stimulation (stool weight)” value in series [1] (vs physiological saline) was “significantly inhibited”.

Regarding `CC[C@H]1OC(=O)[C@H](C)[C@@H](O[C@H]2C[C@@](C)(OC)[C@@H](O)[C@H](C)O2)[C@H](C)[C@@H](O[C@@H]2O[C@H](C)C[C@H](N(C)C(C)C)[C@H]2O)[C@@]2(C)CC(C)=C(O2)[C@H](C)C(=O)[C@]1(C)OC.CC[C@H]1OC(=O)[C@H](C)[C@@H](O[C@H]2C[C@@](C)(OC)[C@@H](O)[C@H](C)O2)[C@H](C)[C@@H](O[C@@H]2O[C@H](C)C[C@H](N(C)C(C)C)[C@H]2O)[C@@]2(C)CC(C)=C(O2)[C@H](C)C(=O)[C@]1(C)OC.O=C(O)/C=C/C(=O)O` [GM-611, erythromycin, 8,9-didehydro-N-demethyl-9-deoxo-6,11-dideoxy-6,9-epoxy-12-O-methyl N-(1-methylethyl)-11-oxo-, (2E)-2-butenedioate (2:1)], the antibacterial action entry in series [2] is “weaker antibacterial action than erythromycin”. Besides, the “stool weight at the maximum dose” value in series [1] (GM-611 20 mg/kg oral, 2.5 hours) was “reached the same level as observed in the morphine-untreated group”. Further, the “morphine-induced defecation dysfunction (stool weight for 2.5 hours after administration)” value in series [1] (feeding stimulation, oral GM-611 1.25-20 mg/kg) was “dose-dependently improved”. The “water content of stool” value in the series on normal rabbits (Kbl:JW) (oral 1.25-10 mg/kg GM-611) is reported as “no change”. Further, the stool weight entry in the series on normal rabbits (Kbl:JW) (oral 1.25-10 mg/kg, 0 to 4 hours after administration, vs vehicle) is reported as “dose-dependently increased”. Also, the stool condition entry with normal dogs (beagle) (at first defecation after administration) is listed as “not diarrhea”; with healthy male volunteers (healthy male volunteers, GM-611-treated groups vs placebo-treated group), “no change”. Further, the “time until the first defecation after administration” value in the series on normal dogs (beagle) (intragastric 0.3, 1, 3 mg/kg, 1 hour after feeding) is given as “dose-dependently decreased”. For the same molecule, the “average number of defecation days” value in the series on healthy male volunteers (healthy male volunteers, 5, 10, 20 mg three times a day oral for 10 days, averaged over all GM-611 groups, placebo 6.0) was determined as 8.2. In the series on healthy male volunteers (healthy male volunteers, 5, 10, 20 mg three times a day oral for 10 days, placebo 0.7), the “average daily frequency of defecation” value stood at 1.0.

For the molecule sennoside [reference compound], the “water content of stools” value with normal rabbits (Kbl:JW) (oral sennoside 12-48 mg/kg) is “increased dose-dependently”. For the same molecule, the stool weight result in the series with normal rabbits (Kbl:JW) (oral sennoside 12-48 mg/kg, significant during 4 to 8 hours after administration (delayed)) was “dose-dependently increased”.
